Legend:
[1] = system: Mat-LyLu cells; assay: Cell growth (proliferation) assay (MTT); format: cell-based, rat
Method: (§1) Cells were plated at 2×10^4 cells/ml in 24-well plates (Becton-Dickinson) and allowed to settle overnight. The cells were then treated for the required time of incubation (24 hours+), with medium changes every 24 hours. At the end of the treatment, the medium was removed, and this was followed by the colorimetric 3-[4,5-dimethylthiazol-2-yl]-2,5-diphenyltetrazolium bromide (MTT) assay (Grimes et al., 1995). Briefly, 0.1 ml MTT (5 mg/ml made up in the growth medium) and 0.4 ml growth medium was added in each well and the plate was incubated for 3-4 hours at 37° C. The medium was then removed from the chambers and replaced with 0.5 ml dimethyl sulfoxide (DMSO) and 0.063 ml glycine buffer (0.1 M glycine and 0.1 M NaCl; pH 10.5). Absorbance at 570 nm was determined 15 minutes after the addition of the glycine buffer. Results were calculated as means of nine repeats of each of the treatment vs. control spectrophotometer readings from individual invasion wells.
(§2) With the exception of single cell adhesion tests, which are discussed in the following paragraph, experiments were carried out under either; • (i) normal normoxic conditions ([…], 5% carbon dioxide), or • (ii) following 24 hours hypoxic pre-treatment (2% O2, 5% CO2, 93% N2) continued during the assays.

[2] = system: MDA-MB-231 cells; assay: Lateral motility assay (wound-heal / scratch); format: cell-based, human
Method: This assay was used to represent the “free” motility of cancer cells during local spreading. FIG. 5(a) is a plan view from above of a cell culture dish 501 having a semi-confluent layer of cells 502 on its surface, the cells being in an aqueous medium 503.
In order to determine lateral motility, a “wound-heal (“scratch”)” test was carried out, in which a scratch 504 of ˜0.5 mm was made through the layer of cells, as shown in FIG. 5(b) which is a side sectional view of the cell culture dish.
During the period of 24 hours following the formation of the scratch, the cells moved into the gap.
FIGS. 5(c) and 5(d) are schematic plan views of the cell culture dish 501 at time t=zero when the width of the scratch 504 is w0 and time t=24 hours when the width of the scratch 504 is w24, respectively.
as §2

[3] = system: MDA-MB-231 cells; assay: Cell viability assay (trypan blue); format: cell-based, human; conditions: Normoxia, 48 hours
Method: Cells were seeded at a density of 5×10^4 cells/ml in 35 mm Falcon tissue culture dishes. After treatment with a given drug, the medium was removed and replaced with 800 μl of growth medium and 200 μl 0.4% trypan blue (Sigma, Dorset, UK) and incubated for 10 minutes in the incubator. The trypan blue was removed and the cells were washed once with 3 ml growth medium. For each treatment, cells from 30 random fields of view were counted under 100× magnification. The number of dead cells, stained blue, was counted in each field of view. The data were expressed as percentages of living cells out of the total number of cells in given fields of view. The percentages were averaged and differences between control and treatment were compared from at least three independent experiments.
as §2

[4] = system: MDA-MB-231 cells; assay: Invasion assay (Matrigel Transwell); format: cell-based, human; conditions: for INVASIVENESS (pretreatment): 72 hours pretreatment
From the text: This assay is an extension of the transverse migration assay described above. To “invade”, the cells need both (i) to move as in the transverse migration assay and (ii) secrete a proteolytic enzyme to digest their surroundings. The ability of cells to invade neighbouring tissues by enzyme secretion was therefore assessed by using a layer of Matrigel™ (BD Biosciences) spread across the porous membrane of a Transwell® insert.
FIG. 7 is a schematic side sectional view of an invasion chamber 701 having a Transwell® insert 702 separating the chamber into upper 703 and lower 704 sections. The insert 702 has a migration filter membrane 705 in its base with 8 μm pores 706 extending therethrough. A layer 707 of Matrigel™ is shown coating the filter membrane 705.
Cells 708 were plated at a density of 2×10^4/ml onto the Matrigel™ layer 707 in 24-well plates (Becton-Dickinson) according to the manufacturers' instructions. 50 μl Matrigel™ was seeded at a 1:7 dilution (10 mg/ml stock) onto the inserts and left overnight. Prior to seeding with the cells the Matrigel™ was rehydrated using medium with no additions. This medium was removed prior to seeding the cells.
Cells were plated in a 1-5% FBS chemotactic gradient overnight (12 hours). The nutrient concentration in the medium 709 in the upper section 703 of the chamber was less than the concentration of nutrient in the medium 710 in the lower section 704 to induced movement of the cells through the Matrigel™ layer 707 and through the pores 706 to the underside of the filter membrane 705. At the end of each assay, non-invaded/non-migrated cells were removed from the upper surface of the insert 702 with two different swabs.
The number of cells invading to the underside of the insert 702 was determined using crystal violet staining. Invaded cells were fixed for 15 minutes with ice-cold methanol. Then 0.5% crystal violet (in 25% methanol) was added for 15 minutes. The inserts were swabbed again and then washed in water and allowed to dry. Cells were then counted using twelve separate fields of view per insert (×200 magnification). If the difference in the average number of cells invading the two control inserts was more than 40%, the experiment was rejected.
as §2

[5] = system: MDA-MB-231 cells; assay: Cell growth (proliferation) assay (MTT); format: cell-based, human; conditions: Normoxia
Method: as §1, §2

[6] = Hypoxia, 5 μM, listed as RILUZOLE

For Nc1nc2ccc(OC(F)(F)F)cc2s1 [riluzole], the “cell proliferation with increasing concentration” value ([1]; 3 μM, 5 μM, 10 μM and 30 μM, 24 hours, normoxia and hypoxia (2% O2)) was “decreased cell proliferation dose dependently under both normoxia and hypoxia; the effect was greater under hypoxia”, the “PROLIFERATION (24 hours)” value ([1]; Hypoxia, 3 μM) was “no effect” and the “PROLIFERATION (24 hours)” value ([1]; Hypoxia, 5 μM) was “tail off”. The “PROLIFERATION (24 hours)” value ([1]; Hypoxia, 10 μM) was “tail off”, the “PROLIFERATION (24 hours)” value ([1]; Hypoxia, 30 μM) was “tail off” and the “PROLIFERATION (24 hours)” value ([1]; Normoxia, 3 μM) was “no effect”. For the same compound, the “PROLIFERATION (24 hours)” value ([1]; Normoxia, 5 μM) was “tail off”, the “PROLIFERATION (24 hours)” value ([1]; Normoxia, 10 μM) was “tail off” and the “PROLIFERATION (24 hours)” value ([1]; Normoxia, 30 μM) was “tail off”. The “lateral motility with increasing concentration” value ([2]; 1 μM, 10 μM and 100 μM, normoxia and hypoxia) was “reduced the lateral motility of the cells; the effect was greater under hypoxia”, the “LATERAL MOTILITY” value ([2]; Hypoxia, 1 μM) was “decreased” and the “LATERAL MOTILITY” value ([2]; Hypoxia, 10 μM) was “decreased”. For the same compound, the “LATERAL MOTILITY” value ([2]; Hypoxia, 100 μM) was “decreased”, the “LATERAL MOTILITY” value ([2]; Normoxia, 1 μM) was “no effect” and the “LATERAL MOTILITY” value ([2]; Normoxia, 10 μM) was “decreased”. For the same compound, the “LATERAL MOTILITY” value ([2]; Normoxia, 100 μM) was “decreased”, the “CELL VIABILITY” value ([3]; 1 μM) was “no effect” and the “CELL VIABILITY” value ([3]; 10 μM) was “decreased the cell viability”. For the same compound, the “CELL VIABILITY” value ([3]; 10 μM, listed as RILUZOLE) was “cell death”, the “CELL VIABILITY” value ([3]; 100 μM) was “decreased the cell viability” and the “CELL VIABILITY” value ([3]; 100 μM, listed as RILUZOLE) was “cell death”. For the same compound, the “INVASIVENESS (no pretreatment)” value ([4]; Hypoxia, 1 μM) was “decreased”, the “INVASIVENESS (pretreatment)” value ([4]; Hypoxia, 5 μM) was “significantly inhibited invasiveness” and the “INVASIVENESS (pretreatment)” value [4, 6] was “decreased”. For the same compound, the “INVASIVENESS (no pretreatment)” value [4, 6] was “decreased”, the “INVASIVENESS (no pretreatment)” value ([4]; Hypoxia, 5 μM, listed as Riluzole) was “significantly inhibited invasiveness” and the “INVASIVENESS (no pretreatment)” value ([4]; Normoxia, 1 μM) was “decreased”. The “PROLIFERATION (24 hours)” value ([5]; 1 μM) was “no effect”, the “PROLIFERATION (24 hours)” value ([5]; 10 μM) was “no effect” and the “PROLIFERATION (24 hours)” value ([5]; 100 μM) was “reduced the proliferation of the cells in a statistically significant way”. The “PROLIFERATION (24 hours)” value ([5]; 100 μM, listed as RILUZOLE) was “tail off” and the “growth (number of cells)” value ([5]; 100 μM, 48 hours) was “reduced the proliferation of the cells in a statistically significant way”.
